Source: US11180657B2, “Polysulfonated fluorescence dyes” (ATTO-TEC GmbH, priority 2017, dated 2021)
Marks after values point to notes of the source that are not given here.

How the values were obtained:
[1] = Fluorescence maximum of the dye; format: physicochemical
Excerpt: (§1) Examples of the compounds according to the invention are listed in Tables 2-6, where the structures as well as the absorption and fluorescence maxima are indicated. The spectra of selected compounds are shown FIGS. 5-18.

[2] = Absorption maximum of the dye; format: physicochemical
Excerpt: as §1

Row | Compound | λfl ([1]; solvent PBS pH 7.4) | λabs ([2]; solvent PBS pH 7.4) | λfl ([1]; solvent ethanol) | λabs ([2]; solvent ethanol) | λabs ([2]; solvent water/acetonitrile 1:1)
1 | CC1(C)c2c(cc3c4c2CCCN4CCC3)C=c2cc3c(cc21)=[N+](Cc1ccc(S(=O)(=O)O)cc1S(=O)(=O)O)CCC3 [Compound 79] | 649^b nm | 627^b nm | – | – | –
2 | Cc1cc(=O)n(CC(=O)O)c2cc(Nc3nc(Cl)nc(NCCS(=O)(=O)O)n3)ccc12 [Compound 114] | 385^b nm | 338^b nm | – | – | –
3 | CCN1c2cc3c(cc2C(CS(=O)(=O)O)=CC1(C)C)C(c1ccccc1C(=O)N(C)CCCC(=O)O)=c1cc2c(cc1C3(C)C)=[N+](Cc1ccc(S(=O)(=O)O)cc1S(=O)(=O)O)C(C)(C)C=C2CS(=O)(=O)O [Compound 65] | 706^b nm | 679^b nm | – | – | –
4 | CN(C)c1ccc2c(c1)C(C)(C)c1cc3c(cc1=C2)CCC[N+]=3CS(=O)(=O)O [Compound 75] | – | – | 621^a nm | 597^a nm | –
5 | Cn1cc[n+](CCCCS(=O)(=O)O)c1C1=c2cc3c(cc2C(C)(C)c2cc4c(cc21)C(CS(=O)(=O)O)=CC(C)(C)N4CCCC(=O)O)=[N+](Cc1ccc(S(=O)(=O)O)cc1S(=O)(=O)O)CCC3 [Compound 57] | 749^b nm | 725^b nm | – | – | –
6 | CN(CCCC(=O)O)C(=O)c1ccccc1-c1c2cc(S(=O)(=O)O)/c(=N/CCc3ccc(S(=O)(=O)O)cc3)cc-2oc2cc(NCCc3ccc(S(=O)(=O)O)cc3)ccc12 [Compound 22] | 558^b nm | – | – | – | 536^c nm
7 | CC1(C)C=C(CS(=O)(=O)O)c2cc3c(cc2N1CCS(=O)(=O)O)[Si](C)(C)c1cc2c(cc1=C3NC(CCS(=O)(=O)O)C(=O)O)C(CS(=O)(=O)O)=CC(C)(C)[N+]=2CCS(=O)(=O)O (stereo not shown) [Compound 96] | 695^b nm | 518^b nm | – | – | –
8 | CN(C)c1ccc2c(c1)C(C)(C)c1cc3c(cc1=C2C#N)CCC[N+]=3Cc1ccc(S(=O)(=O)O)cc1S(=O)(=O)O [Compound 77] | 751^b nm | 730^b nm | – | – | –
9 | CCN(CS(=O)(=O)O)c1ccc2c(c1)[Si](C)(C)C1=C/C(=[N+](/CC)CS(=O)(=O)O)C=CC1=C2NCCS(=O)(=O)O [Compound 87] | 605^b nm | 472^b nm | – | – | –
10 | CC1(C)c2c(cc3c4c2CCCN4CCC3)C(C#N)=c2cc3c(cc21)=[N+](Cc1ccc(S(=O)(=O)O)cc1S(=O)(=O)O)CCC3 [Compound 80] | 761^b nm | 739^b nm | – | – | –
11 | Cn1cc[n+](CCCCS(=O)(=O)O)c1C1=c2cc3c(cc2C(C)(C)c2cc4c(cc21)C(CS(=O)(=O)O)=CC(C)(C)N4CCS(=O)(=O)O)=[N+](CCCC(=O)O)C(C)(C)C=C3CS(=O)(=O)O [Compound 59] | 771^b nm | 739^b nm | – | – | –
12 | CC1(C)c2cc3c(cc2N=c2cc4c(cc21)=[N+](CCCC(=O)O)C(C)(C)C=C4CS(=O)(=O)O)CCCN3Cc1ccc(S(=O)(=O)O)cc1S(=O)(=O)O [Compound 103] | 761^b nm | 740^b nm | – | – | –
13 | CC1=CC(C)(C)N(Cc2ccc(S(=O)(=O)O)cc2)c2cc3c(cc21)C(c1n(C)cc[n+]1CCCCS(=O)(=O)O)=c1cc2c(cc1C3(C)C)=[N+](CCCC(=O)O)C(C)(C)C=C2C [Compound 58] | 775^b nm | 742^b nm | – | – | –
14 | CN(CCCC(=O)O)C(=O)c1ccccc1C1=c2cc3c(cc2C(C)(C)c2cc4c(cc21)C(CS(=O)(=O)O)CC(C)(C)N4Cc1ccc(S(=O)(=O)O)cc1S(=O)(=O)O)=[N+](Cc1ccc(S(=O)(=O)O)cc1S(=O)(=O)O)C(C)(C)CC3CS(=O)(=O)O (stereo not shown) [Compound 68] | 666^b nm | 645^b nm | – | – | –
15 | CC1(C)C=C(CS(=O)(=O)O)c2cc3c(cc2N1CCCC(=O)O)[Si](C)(C)c1cc2c(cc1=C3C#N)C(CS(=O)(=O)O)=CC(C)(C)[N+]=2CCS(=O)(=O)O [Compound 92] | 841^b nm | 817^b nm | – | – | –
16 | CCN(Cc1ccc(S(=O)(=O)O)cc1S(=O)(=O)O)c1ccc2c(-c3ccccc3C(=O)N(C)CCCC(=O)O)c3cc/c(=[N+](\CC)Cc4ccc(S(=O)(=O)O)cc4S(=O)(=O)O)cc-3oc2c1 [Compound 5] | 584^b nm | – | – | – | 560^c nm
17 | Cc1cc(=O)n(CC(=O)O)c2cc(NCS(=O)(=O)O)ccc12 [Compound 106] | 410^b nm | 350^b nm | – | – | –
18 | CCN1c2cc3c(cc2C(CS(=O)(=O)O)CC1(C)C)C(c1ccccc1C(=O)N(C)CCCC(=O)O)=c1cc2c(cc1C3(C)C)=[N+](Cc1ccc(S(=O)(=O)O)cc1S(=O)(=O)O)C(C)(C)CC2CS(=O)(=O)O (stereo not shown) [Compound 66] | 665^b nm | 645^b nm | – | – | –
19 | CCN(Cc1ccc(S(=O)(=O)O)cc1S(=O)(=O)O)c1ccc2c(-c3ccccc3C(=O)O)c3cc/c(=[N+](\CC)Cc4ccc(S(=O)(=O)O)cc4S(=O)(=O)O)cc-3oc2c1 [Compound 3] | 583^b nm | – | – | – | 550^c nm
20 | CC1(C)c2cc3c(cc2C(c2c(Cl)cccc2Cl)=c2cc4c(cc21)=[N+](Cc1ccc(S(=O)(=O)O)cc1S(=O)(=O)O)C(C)(C)C=C4CS(=O)(=O)O)CCCN3CCCC(=O)O [Compound 52] | 698^b nm | 673^b nm | – | – | –

Row | Compound | λfl ([1]; solvent PBS pH 7.4) | λabs ([2]; solvent PBS pH 7.4) | λfl ([1]; solvent ethanol) | λabs ([2]; solvent ethanol) | λabs ([2]; solvent water/acetonitrile 1:1)
21 | CN(Cc1ccc(S(=O)(=O)O)cc1S(=O)(=O)O)c1ccc2c(c1)[Si](C)(C)C1=C/C(=[N+](/C)Cc3ccc(S(=O)(=O)O)cc3S(=O)(=O)O)C=CC1=C2c1c(F)c(F)c(SCC(=O)O)c(F)c1F [Compound 54] | 709^b nm | 685^b nm | – | – | –
22 | CN(Cc1ccc(S(=O)(=O)O)cc1S(=O)(=O)O)c1ccc2c(c1)[Si](C)(C)C1=C/C(=[N+](/C)Cc3ccc(S(=O)(=O)O)cc3S(=O)(=O)O)C=CC1=C2NCCCC(=O)O [Compound 90] | 637^b nm | 483^b nm | – | – | –
23 | Cn1cc[n+](CCCC(=O)O)c1C1=c2cc3c(cc2[Si](C)(C)c2cc4c(cc21)C(CS(=O)(=O)O)CC(C)(C)N4Cc1ccc(S(=O)(=O)O)cc1S(=O)(=O)O)=[N+](Cc1ccc(S(=O)(=O)O)cc1S(=O)(=O)O)C(C)(C)CC3CS(=O)(=O)O (stereo not shown) [Compound 63] | 776^b nm | 752^b nm | – | – | –
24 | CN(CCCC(=O)O)C(=O)c1ccccc1C1=c2cc3c(cc2C(C)(C)c2cc4c(cc21)C(CS(=O)(=O)O)=CC(C)(C)N4Cc1ccc(S(=O)(=O)O)cc1S(=O)(=O)O)=[N+](Cc1ccc(S(=O)(=O)O)cc1S(=O)(=O)O)C(C)(C)C=C3CS(=O)(=O)O [Compound 67] | 707^b nm | 679^b nm | – | – | –
25 | CC1(C)C=C(CS(=O)(=O)O)c2cc3c(cc2N1CCCC(=O)O)[Si](C)(C)c1cc2c(cc1=C3NCC(S(=O)(=O)O)S(=O)(=O)O)C(CS(=O)(=O)O)=CC(C)(C)[N+]=2CCS(=O)(=O)O [Compound 93] | 695^b nm | 516^b nm | – | – | –
26 | CN(CCCC(=O)O)C(=O)c1ccccc1C1=c2cc3c(cc2C(C)(C)c2c1cc1c4c2CCCN4CCC1)=[N+](Cc1ccc(S(=O)(=O)O)cc1S(=O)(=O)O)CCC3 [Compound 41] | 659 nm | 640 nm | 663 nm | 642 nm | –
27 | CC1(C)c2cc3c(cc2N=c2cc4c(cc21)=[N+](CCCC(=O)O)C(C)(C)CC4CS(=O)(=O)O)CCCN3Cc1ccc(S(=O)(=O)O)cc1S(=O)(=O)O (stereo not shown) [Compound 102] | 742^b nm | 721^b nm | – | – | –
28 | Cc1c(CC(=O)O)c(=O)oc2cc(NCS(=O)(=O)O)ccc12 [Compound 110] | 353^b nm | 354^b nm | – | – | –
29 | O=C(O)c1ccccc1-c1c2cc/c(=N/CCc3ccc(S(=O)(=O)O)cc3)cc-2oc2cc(NCCc3ccc(S(=O)(=O)O)cc3)ccc12 [Compound 18] | 551^b nm | – | – | – | 530^c nm
30 | CN(CCCC(=O)O)C(=O)c1ccccc1-c1c2ccc(=[N+](Cc3ccc(S(=O)(=O)O)cc3S(=O)(=O)O)Cc3ccc(S(=O)(=O)O)cc3S(=O)(=O)O)cc-2oc2cc(N(Cc3ccc(S(=O)(=O)O)cc3S(=O)(=O)O)Cc3ccc(S(=O)(=O)O)cc3S(=O)(=O)O)ccc12 [Compound 9] | 572^b nm | – | – | – | 550^c nm
31 | CN(Cc1ccc(S(=O)(=O)O)cc1S(=O)(=O)O)c1ccc2c(c1)[Si](C)(C)C1=C/C(=[N+](/C)Cc3ccc(S(=O)(=O)O)cc3S(=O)(=O)O)C=CC1=C2c1cc(C(=O)O)ccc1C(=O)O [Compound 70] | 670^b nm | 649^b nm | – | – | –
32 | CN(C)c1ccc2c(c1)C(C)(C)c1cc3c(cc1=C2c1c(F)c(F)c(SCC(=O)O)c(F)c1F)CCC[N+]=3Cc1ccc(S(=O)(=O)O)cc1S(=O)(=O)O [Compound 38] | 667^b nm | 646^b nm | – | – | –
33 | CN(CCCC(=O)O)C(=O)c1ccccc1-c1c2cc/c(=N/CCc3ccc(S(=O)(=O)O)cc3S(=O)(=O)O)cc-2oc2cc(NCCc3ccc(S(=O)(=O)O)cc3S(=O)(=O)O)ccc12 [Compound 24] | 561^b nm | – | – | – | 539^c nm
34 | CN(CCCC(=O)O)C(=O)c1ccccc1-c1c2cc/c(=N/CCc3ccc(S(=O)(=O)O)cc3)cc-2oc2cc(NCCc3ccc(S(=O)(=O)O)cc3)ccc12 [Compound 21] | 559^b nm | – | – | – | 538^c nm
35 | CC1(C)C=C(CS(=O)(=O)O)c2cc3c(cc2N1)C(C)(C)c1cc2c(cc1=C3c1c(F)c(F)c(SCC(=O)O)c(F)c1F)C(CS(=O)(=O)O)=CC(C)(C)[N+]=2Cc1ccc(S(=O)(=O)O)cc1 [Compound 44] | 707^b nm | 687^b nm | – | – | –
36 | Cc1cc(=O)n(CC(=O)O)c2cc(NCS(=O)(=O)O)c(S(=O)(=O)O)cc12 [Compound 108] | 411^b nm | 348^b nm | – | – | –
37 | CN(Cc1ccc(S(=O)(=O)O)cc1S(=O)(=O)O)c1ccc2c(c1)C(C)(C)C1=C/C(=[N+](/C)Cc3ccc(S(=O)(=O)O)cc3S(=O)(=O)O)C=CC1=C2c1c(F)c(F)c(F)c(F)c1F [Compound 46] | 666^b nm | 646^b nm | – | – | –
38 | CC1(C)c2cc3c(cc2C(c2c(Cl)cccc2Cl)=c2cc4c(cc21)=[N+](Cc1ccc(S(=O)(=O)O)cc1S(=O)(=O)O)C(C)(C)CC4CS(=O)(=O)O)CCCN3CCCC(=O)O (stereo not shown) [Compound 53] | 677^b nm | 654^b nm | – | – | –
39 | Cc1cc(=O)[nH]c2cc(NCS(=O)(=O)O)ccc12 [Compound 105] | 413 nm | 349 nm | 406 nm | 355 nm | –
